The values below are quoted from earlier work in US20120258171A1, “COMPOSITION COMPRISING FESOTERODINE AND FIBER” (ratiopharm GmbH, priority 2009, published 2012).

Molecules are shown by their SMILES.

For data set [1] the following is noted: general statement on the active agent.
The next data set deals with overactive bladder. The settings on record: both Phase III studies, versus placebo.

Take `CC(C)C(=O)Oc1ccc(CO)cc1[C@H](CCN(C(C)C)C(C)C)c1ccccc1` [Fesoterodine, 2-[(1R)-3-(di-isopropylamine)-1-phenylpropyl]-4-(hydroxymethyl)phenyl-isobutyrate]: the stability against hydrolysis entry in data set [1] is “not particularly stable against hydrolysis”. In the data set on overactive bladder, the “improvement of clinically relevant end points (urge incontinence events/24 h, frequency of micturition, mean micturition volume)” value was “statistically significant improvements over a placebo”.
